Results taken from US9289490B2, “Combinations and uses thereof” (MORPHOSYS AG, priority 2010, dated 2016).
Values joined by “and” are separate entries in the source; they are usually repeats but may differ in a detail not shown here. Equal values may be shown once.

Experiments:
NCI-H929 cells [1] = assay: ADCC with human PBMCs, flow cytometry (CalceinAM/PI)
Description: (§4) PBMC's were isolated by density gradient centrifugation of freshly isolated human blood. Isolated blood from different donors were layered on a defined volume of Biocoll (Biochrome AG; CAT No.:L6115; LOT No.:1050T) in a Falcon tube and centrifuged at 380 g. The PBMCs were isolated and supplemented with RPMI medium.
(§5) Cell suspensions were further incubated for 4 h at 37° C. To detect dead AMO-1 cells, cell suspensions were challenged with propidium iodide (PI) and subsequently analyzed in flow cytometry. Target cells were separated via gating of CalceinAM positive cell populations, and cells killed via ADCC were quantified.
(§6) Single and combination doses of 5 μM LEN and 15 μg/ml of MOR03207 and 0.2 or 0.07 μg/ml MOR202 were used.
(§7) Single and combination doses of 5 μM LEN and 15 μg/ml of MOR03207 and 0.2* or 0.07 μg/m MOR202 were used.

AMO-1 cells [2] = assay: CD38 surface expression after lenalidomide (FACS, ABC); assay type: cell-based, human
Description: (§1) Cells were stained with a directly labelled QuantiBRITE™ CD38-PE antibody (Becton Dickinson GmbH, Clone HB7, CAT #342371), which is specific for CD38. The “Antibodies Bound Per Cell” (ABC's) were determined using the flow cytometry based QuantiBRITE™ system, which measures the geometric mean (GeoMean) per cell. Conversion of measured GeoMean into correlating ABC amount per cell was done with GraphPad PRISM™ software. The ABC values are assumed to correlate with the number of CD38 molecules per cell, since QuantiBRITE™ CD38-PE carries one PE molecule per antibody.
(§2) To determine whether lenalidomide induced upregulation of CD38 in the multiple myeloma and plasmacytoma cells of Table 1, the cell lines were incubated with 100 μM lenalidomide and, subsequently, CD38 surface expression was analyzed by FACS.
(§3) Around 2×10^5 cells of each of the cells lines of Table 1 were plated on 48-well dishes in standard RPMI medium. Lenalidomide, purchased from Selleck Chemicals (LLC S1029, CAS No. 191732-6; Batch: S10290), was applied to respective wells to a final concentration of 100 μM in a volume of 750 μl containing 20% FCS and 0.1% DMSO.
Cells were resuspended by gentle pipetting and 250 μl of cell suspension per incubation period were transferred into a well of a 96-well round bottom plate. Cells were washed by centrifugation for 1 min at 700×g and were resuspended in 150 μl of cold FACS buffer (1×PBS supplemented with 3% FCS). Cells were again pelleted down by centrifugation and were resuspended in 150 μl of FACS buffer containing 15 μg/ml of anti-CD38 antibody (MOR202, IgG1) or control antibody MOR03207 and incubated for 1 h on ice. Cells were then washed 3 times by centrifugation and were resuspended in FACS buffer supplemented with PE-labeled secondary antibody (PE-Fab2 fragment, goat anti-human IgG. Fc-fragment specific; Jackson Immuno Research; CAT: 109-116-098; Lot: 80938). Cells were incubated for 45 minutes on ice, then washed 3 times by centrifugation and resuspended in FACS buffer. The cell suspensions were then subjected to FACS analysis using a FACS array device.
Additionally, the affect of lenalidomide on the CD38 expression of AMO-1 cells is shown in FIG. 1, and the affect of lenalidomide on the CD38 expression of NCI-H929 cells is shown in FIG. 5.

[3] = tested on: Plasmacytoma, Malignant Plasma Cells; assay: as above; assay type: cell-based, human
Description: Bone marrow samples (4-10 ml aspirate) from multiple myeloma patients and extramedullary tumor plasmacytoma samples were obtained after informed consent from the Klinikum rechts der Isar (“KrdI”) (Munich, Germany). Samples were subjected to centrifugation, and further plasma cell enrichment was achieved via magnetic-activated cell sorting.
as §1, §2, §3
Cells were resuspended by gentle pipetting and 250 μl of cell suspension per incubation period were transferred into a well of a 96-well round bottom plate. Cells were washed by centrifugation for 1 min at 700×g and were resuspended in 150 μl of cold FACS buffer (1×PBS supplemented with 3% FCS). Cells were again pelleted down by centrifugation and were resuspended in 150 μl of FACS buffer containing 15 μg/ml of anti-CD38 antibody (MOR202, IgG1) or control antibody MOR03207 and incubated for 1 h on ice. […]

NCI-H929 cells [4] = settings: 5 µM
Description: as §4, §5, §6, §7

AMO-1 cells [5] = assay: Cell proliferation, XTT-based assay; parameters: species or system human
Description: Cells were collected and distributed in 96-well plates with 5000 cells per well.
After incubation, plates were analyzed for cell proliferation in a quantitative colorimietric XTT-based assay using the cell proliferation kit II (ROCHE, Cell Proliferation Kit II, Cat. No.: 11465015001). For subsequent measurement plates were subjected to Tecan Genios Reader and absorbance at 492 nm was detected.
Increasing amounts of Bortezomib (Velcade®, Lot: No.: #9AZSY00) were applied to AMO-1, LP-1, NCI-H929 and RPMI-8226 cells and incubated for 24 h, 48 h and 72 h. After incubation, period plates were analyzed for cell proliferation in a quantitative colorimietric XTT-based assay using the cell proliferation kit II (ROCHE, Cell Proliferation Kit II, Cat. No.: 11465015001). For subsequent measurement, plates were subjected to Tecan Genios Reader and absorbance at 492 nm was detected.

AMO-1 cells [6] = assay: ADCC with human PBMCs, flow cytometry (CalceinAM/PI); assay type: cell-based
Description: For Tables 3b-c, “Theoretical Combination” represents the addition of the values of MOR202 alone and the values of LEN alone. The normalized data of Table 3b is calculated as follows. Therefore, the specific killing values of Table 3b are calculated by subtracting the values of the controls. Then the specific killing values are compared to the MOR202 group, which is set as 1.
The constant m determines the shape of the dose-effect curve. We used Excel Fit software to carry out a linear regression calculation to estimate the parameters m and D50.
The CI-isobol method provides a quantitative assessment of synergism between drugs. A combination index (CI) is estimated from dose-effect data of single and combined drug treatments. […] Formally, the combination index (CI) of a combined drug treatment is defined as CI=D1/Dx1+D2/Dx2
The data is analysed in the following way: Antagonistic(AB)/C<(A/C)×(B/C) Additive(AB)/C=(A/C)×(B/C) Synergistic(AB)/C>(A/C)×(B/C) where A is the treatment with LEN alone; B is the treatment with MOR202 alone; C is response to the treatment vehicle; AB is combination of treatments A and B.

[7] = tested on: NCI-H929 human multiple myeloma cells; assay: NCI-H929 bone lysis SCID mouse MM model, MOR202 and LEN (MicroCT); assay type: in vivo, SCID mice
Description: 63 SCID mice were inoculated on Day (−7) orthotopically into the right tibia with 2.5×10^6 NCI-H929 MM cells (in 5 μL) in order to induce bone lysis. Lenalidomide (Groups A and D) and Vehicle Control (Group C) treatments started on Day (−1). MOR202 treatments (Groups B and D) started on Day 0. Treatment continued for 6 weeks.
MicroCT Scan was used to assess bone lysis and included […] analysis comprising Total Bone Volume (TBV), Trabecular Bone Volume (Tb.BV), Trabecular Pattern Factor (Tb.Pf) and Structure Model Index (SMI). Table 10 defines each of these parameters.

RAMOS cells = assay: RAMOS non-Hodgkin tumor SCID mouse survival model, MOR202 and lenalidomide; assay type: in vivo, SCID mice
Description: Sixty-eight female SCID mice were pre-treated with Cyclophosphamide (75 mg/kg, i.p., twice daily) for two days prior to RAMOS cell inoculation (Day −5 and −4). On the day of inoculation (Day −3), all mice were inoculated with 1×10^6 RAMOS cells each intravenously into the tail vein. Sixty-four of the mice were randomised by body weight into eight groups of eight.
The study continued for 98 days and the measured endpoint was survival.

[8] = LEN 50 mg/kg p.o. once daily, MOR202 3 mg/kg i.p. 3 times weekly, 6 weeks, lower = less bone lysis
[9] = group mean of 10 mice, LEN 50 mg/kg p.o., MOR202 3 mg/kg i.p., 6 weeks

Nc1cccc2c1CN(C1CCC(=O)NC1=O)C2=O (stereo not drawn) [LEN, lenalidomide]
Enhancement of MOR202 activity by LEN (in words) (NCI-H929 cells [1]; NCI-H929 cells, Fractional Product Concept and Chou et al., 6 out of 6 experiments each): synergistically enhanced MOR202 activity
% dead cells (raw data, Table 7a), Exp. 2 and 3 (NCI-H929 cells [1]; PBMCs and NCI-H929 cells treated with LEN before MOR202, LEN 5 μM, MOR202 0.07 μg/ml, MOR03207 15 μg/ml): 39.92 % dead cells and 41.92 % dead cells
% dead cells (raw data, Table 7a), Exp. 1 (NCI-H929 cells [1]; PBMCs and NCI-H929 cells treated with LEN before MOR202, LEN 5 μM, MOR202 0.2 μg/ml (*), MOR03207 15 μg/ml): 38.65 % dead cells
Normalized specific killing, AVERAGE (Table 7b) (NCI-H929 cells [1]; PBMCs and NCI-H929 cells treated with LEN, LEN 5 μM, MOR202 0.2 or 0.07 μg/ml, average of 3 experiments): 0.63
% dead cells (raw data, Table 8a), Exp. 2 and 3 (NCI-H929 cells [1]; only effector cells treated with LEN before MOR202, LEN 5 μM, MOR202 0.07 μg/ml, MOR03207 15 μg/ml): 26.27 % dead cells and 25.72 % dead cells
% dead cells (raw data, Table 8a), Exp. 1 (NCI-H929 cells [1]; only effector cells treated with LEN before MOR202, LEN 5 μM, MOR202 0.2 μg/ml (*), MOR03207 15 μg/ml): 17.50 % dead cells
Normalized specific killing, AVERAGE (Table 8b) (NCI-H929 cells [1]; only effector cells treated with LEN, LEN 5 μM, MOR202 0.2 or 0.07 μg/ml, average of 3 experiments): 0.02
Absolute number of ABC (CD38 expression) LEN (extrapolated) (AMO-1 cells [2]; 100 μM lenalidomide): 115,000 ABC
Absolute number of ABC (CD38 expression) INCREASE (AMO-1 cells [2]; 100 μM lenalidomide vs basal): 90,000 ABC
Fold increase (CD38 expression) (AMO-1 cells [2]; 100 μM lenalidomide vs basal): 4.5 fold
Absolute number of ABC (CD38 expression) LEN (extrapolated) ([3]; 100 μM lenalidomide): 69,000 ABC
Absolute number of ABC (CD38 expression) INCREASE ([3]; 100 μM lenalidomide vs basal): 39,000 ABC
Fold increase (CD38 expression) ([3]; 100 μM lenalidomide vs basal): 2.3 fold
Normalized specific killing, fractional product combination set as 1 (Table 7b), Exp. 1 (NCI-H929 cells [4]): 0.67
Normalized specific killing, fractional product combination set as 1 (Table 8b), Exp. 1 (NCI-H929 cells [4]): −0.10
Cytotoxicity of lenalidomide alone (in words) (AMO-1 cells [5]): low cytotoxity against AMO-1 cells
Cell killing by lenalidomide alone (in words) (AMO-1 cells [6]; AMO-1 cells): no effect on AMO-1 cells regarding cell killing
Enhancement of MOR202 ADCC activity by LEN (in words) (AMO-1 cells [6]; AMO-1 cells, Clarke et al. all 6 experiments, Chou et al. 6 out of 6): synergistically enhanced MOR202 ADCC activity
Normalized specific killing, theoretical combination set as 1, AVERAGE (Table 3c) (AMO-1 cells [6]; PBMCs and AMO-1 cells treated with LEN, MOR202 0.42 μg/ml, LEN 5 μM, average of 3 experiments): 0.2
% dead cells (raw data, Table 4a) (AMO-1 cells [6]; only PBMCs (effector cells) treated with LEN before MOR202, LEN 10 μM, MOR202 and MOR03207 15 μg/ml, Exp. 1-3): 17.93 % dead cells and 15.33 % dead cells and 12.98 % dead cells
Normalized specific killing, theoretical combination set as 1, AVERAGE (Table 4c) (AMO-1 cells [6]; only effector cells treated with LEN, MOR202 0.42 μg/ml, LEN 5 μM, average of 3 experiments): 0.1
Structure Model Index (SMI), individual mouse [7, 8]: 2.679 and 2.667 and 2.335 and 2.560 and 2.086 and 2.619 and 2.562 and 2.592 and 2.547 and 3.125
Trabecular Pattern Factor (Tb · Pf), individual mouse [7, 8]: 24.329 mm^−1 and 23.561 mm^−1 and 22.893 mm^−1 and 28.280 mm^−1 and 22.213 mm^−1 and 30.739 mm^−1 and 24.016 mm^−1 and 29.454 mm^−1 and 24.205 mm^−1 and 38.360 mm^−1
Structure Model Index (SMI), Mean [7, 9]: 2.577
Trabecular Pattern Factor (Tb · Pf), Mean [7, 9]: 26.805 mm^−1
Reduction of bone lysis compared to vehicle control ([7]; non-inoculated tibia = 0%, vehicle = 100% bone lysis, MOR202 alone 12 mg/kg, LEN alone 50 mg/kg, combination 3 mg/kg MOR202 and 50 mg/kg LEN): 20%
Number of mice alive at study termination (day 98) (RAMOS cells; LEN 100 mg/kg (Table 14) p.o., MOR202 1 mg/kg i.v.): 0/7
Day of death (post-inoculation) Mean (RAMOS cells; LEN 100 mg/kg (Table 14) p.o., MOR202 1 mg/kg i.v. twice weekly, study 98 days): 21.4 days
% ILS (based on median death day) (RAMOS cells; LEN 100 mg/kg (Table 14) p.o., MOR202 1 mg/kg i.v., vs vehicle control): 10%
Day of death (post-inoculation) Median (RAMOS cells; LEN 100 mg/kg (Table 14; Table 13: 50 mg/kg) p.o. once daily, MOR202 1 mg/kg i.v. twice weekly, study 98 days): 22 days
